According to ChEMBL document CHEMBL1201862, “PubChem BioAssay data set” (2004):
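Method: 48-hour compound exposure of cells in 96-well plates, five concentrations, linear interpolation of endpoints. GI50 marks 50% less growth.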 Calls of active or inactive are those of the source. Cut-off read from the data, not from the text of the source: active = GI50 up to about 1.1 µM and inactive = higher.

Tests used:
Assay in all cases: NCI anticancer screen, dose series, 48 h
SN12C = test system: SN12C
MDA-N = test system: MDA-N
SNB-19 = test system: SNB-19
A498 = test system: A498
LOX IMVI = test system: LOX IMVI
NCI-H226 = test system: NCI-H226
SK-MEL-2 = test system: SK-MEL-2
MDA-MB-435 = test system: MDA-MB-435
SF-539 = test system: SF-539
CAKI-1 = test system: CAKI-1
PC-3 = test system: PC-3
RXF 393 = test system: RXF 393
EKVX = test system: EKVX
NCI-H23 = test system: NCI-H23
ACHN = test system: ACHN
NCI-H460 = test system: NCI-H460
SF-295 = test system: SF-295
M14 = test system: M14
RPMI-8226 = test system: RPMI-8226
KM12 = test system: KM12
SR = test system: SR
SK-OV-3 = test system: SK-OV-3
OVCAR-8 = test system: OVCAR-8
U-251 = test system: U-251
A549 = test system: A549
T47D = test system: T47D
IGROV-1 = test system: IGROV-1
BT-549 = test system: BT-549
786-0 = test system: 786-0
UACC-62 = test system: UACC-62
NCI/ADR-RES = test system: NCI/ADR-RES
HCT-15 = test system: HCT-15
COLO 205 = test system: COLO 205
HCT-116 = test system: HCT-116
HOP-62 = test system: HOP-62
SK-MEL-28 = test system: SK-MEL-28
K562 = test system: K562
OVCAR-5 = test system: OVCAR-5
HOP-92 = test system: HOP-92
HCC 2998 = test system: HCC 2998
SF-268 = test system: SF-268
CCRF-CEM = test system: CCRF-CEM
TK-10 = test system: TK-10
MDA-MB-231 = test system: MDA-MB-231
UO-31 = test system: UO-31
SW-620 = test system: SW-620
UACC-257 = test system: UACC-257
SNB-75 = test system: SNB-75
OVCAR-4 = test system: OVCAR-4
DU-145 = test system: DU-145
HT-29 = test system: HT-29
Hs-578T = test system: Hs-578T
MCF7 = test system: MCF7
OVCAR-3 = test system: OVCAR-3
MOLT-4 = test system: MOLT-4
HL-60 = test system: HL-60
SK-MEL-5 = test system: SK-MEL-5

SMILES: O=C(C/C(=N/O)C(F)(F)F)c1cccs1
- GI50 (SN12C): > 100 µM (inactive)
- GI50 (MDA-N): > 100 µM (inactive)
- GI50 (SNB-19): 50 µM (inactive)
- GI50 (A498): > 100 µM (inactive)
- GI50 (LOX IMVI): > 100 µM (inactive)
- GI50 (NCI-H226): > 100 µM (inactive)
- GI50 (SK-MEL-2): 30.8 µM (inactive)
- GI50 (MDA-MB-435): > 100 µM (inactive)
- GI50 (SF-539): > 100 µM (inactive)
- GI50 (CAKI-1): > 100 µM (inactive)
- GI50 (PC-3): > 100 µM (inactive)
- GI50 (RXF 393): > 100 µM (inactive)
- GI50 (EKVX): > 100 µM (inactive)
- GI50 (NCI-H23): > 100 µM (inactive)
- GI50 (ACHN): > 100 µM (inactive)
- GI50 (NCI-H460): > 100 µM (inactive)
- GI50 (SF-295): > 100 µM (inactive)
- GI50 (M14): > 100 µM (inactive)
- GI50 (RPMI-8226): > 100 µM (inactive)
- GI50 (KM12): > 100 µM (inactive)
- GI50 (SR): > 100 µM (inactive)
- GI50 (SK-OV-3): 76.2 µM (inactive)
- GI50 (OVCAR-8): > 100 µM (inactive)
- GI50 (U-251): > 100 µM (inactive)
- GI50 (A549): > 100 µM (inactive)
- GI50 (T47D): > 100 µM (inactive)
- GI50 (IGROV-1): > 100 µM (inactive)
- GI50 (BT-549): > 100 µM (inactive)
- GI50 (786-0): > 100 µM (inactive)
- GI50 (UACC-62): > 100 µM (inactive)
- GI50 (NCI/ADR-RES): > 100 µM (inactive)
- GI50 (HCT-15): > 100 µM
- GI50 (COLO 205): > 100 µM (inactive)
- GI50 (HCT-116): > 100 µM (inactive)
- GI50 (HOP-62): > 100 µM (inactive)
- GI50 (SK-MEL-28): > 100 µM (inactive)
- GI50 (K562): > 100 µM (inactive)
- GI50 (OVCAR-5): > 100 µM (inactive)
- GI50 (HOP-92): > 100 µM (inactive)
- GI50 (HCC 2998): > 100 µM (inactive)
- GI50 (SF-268): > 100 µM (inactive)
- GI50 (CCRF-CEM): > 100 µM (inactive)
- GI50 (TK-10): > 100 µM (inactive)
- GI50 (MDA-MB-231): > 100 µM (inactive)
- GI50 (UO-31): > 100 µM (inactive)
- GI50 (SW-620): > 100 µM (inactive)
- GI50 (UACC-257): > 100 µM (inactive)
- GI50 (SNB-75): > 100 µM (inactive)
- GI50 (OVCAR-4): > 100 µM (inactive)
- GI50 (DU-145): > 100 µM (inactive)
- GI50 (HT-29): > 100 µM (inactive)
- GI50 (Hs-578T): > 100 µM (inactive)
- GI50 (MCF7): > 100 µM (inactive)
- GI50 (OVCAR-3): 67.8 µM (inactive)
- GI50 (MOLT-4): > 100 µM (inactive)
- GI50 (HL-60): > 100 µM (inactive)
- GI50 (SK-MEL-5): > 100 µM (inactive)
